The values below come from US10472677B2, “Translational dysfunction based therapeutics” (Translational Therapeutics, Inc., priority 2005, dated 2019).

The structures appear in SMILES notation. Where “and” joins values, the source holds several entries; their conditions need not be identical. Identical values can stand only once. Entries after “also recorded” stand apart in the source; their conditions may differ. Starred links: 1 amine or outer side, 2 acyl side, 3 side chain; linkers in the order of their positions; H or OH if unused. Positions of bridges follow the written chain, without caps; N, C: chain ends. Non-standard residues stand in square brackets, D forms with d. Residues, ends and D or L forms follow the SMILES beside them. Chains are numbered I, II in the order given. Actinocin(9to1) = Cc1c2oc3c(C)ccc(C(=O)[*:1])c3nc-2c(C(=O)[*:2])c(N)c1=O; NMeV = CN[C@H](C(=O)O)C(C)C; Sar = CNCC(=O)O Where only a bound is given, the exact number is not on record here.

In one test the target is T1, eIF4E wild-type (Mus musculus, UniProt P63073).
T1 construct: made in house
Nature of the test: tryptophan fluorescence quenching titration of nucleoside/nucleotide binding. The protocol:
For fluorescence titrations, mouse eIF4E, which differs from human eIF4E by four nonconserved amino acids, was produced as described. For NMR spectroscopy, mouse eIF4E was expressed as a fusion with the B1 domain of protein G (G4E, kind gift of Gerhard Wagner, Harvard University, Cambridge, Mass.), in BL21 (DE-3) cells by induction with 0.8 mM isopropyl-β-D-thiogalactopyranoside at 18° C. for 20 h in M9 minimal media containing 1 g/l ^15NH4Cl as the sole nitrogen source (Cambridge Isotopes). Cells were lysed at 4° C. by sonication in 0.1 M NaCl/50 mM Tris.HCl (pH 7.5/0.5 mM EDTA/0.5% (vol/vol) Nonidet P-40/10 mM 2-mercaptoethanol/1 mM PMSF. Lysates were cleared by centrifugation at 30,000×g, adsorbed onto m^7G diphosphate-conjugated agarose (Amersham Pharmacia), and extensively washed with 0.1 M NaCl/20 mM Tris.HCl (pH 7.5)/0.5 mM EDTA (Buffer A) at 4° C. Subsequently, beads were washed with 0.1 mM GTP in Buffer A, and G4E was eluted with 5 mM m^7G in Buffer A. Eluate was diluted with 20 mM Na2PO4 (pH 7.5) to reduce NaCl concentration to 50 mM, applied to Sepharose Q anion exchange column (Amersham Pharmacia), and eluted with a linear gradient of NaCl in 20 mM Na2PO4 (pH 7.5) at 4° C. Eluate was dialyzed extensively against 0.1 M NaCl/50 mM Na2PO4 (pH 6.5)/5 mM DTT at 4° C. to produce apo-G4E, as verified by using NMR spectroscopy and fluorescence titrations. Purity and identity of G4E were verified by using SDS/PAGE and electrospray ionization MS. Proteins were concentrated by using Amicon concentrators (Millipore).
Fluorescence measurements were performed by using a home-built fluorimeter, as described. All titrations were performed in 0.3 M NaCl/10 mM Na2PO4 (pH 7.5)/1 μM zinc in 0.3×0.3 cm^2 fluorescence cuvette (Hellma), by using eIF4E concentration of 2 μM. […] Corrected relative fluorescence intensities were normalized, and fluorescence quenching curves were fit to a heuristic single-site-binding expression: I/I0=Kd^n/(x^n+Kd^n) where x is ligand concentration, Kd is the apparent dissociation constant, and n is the Hill coefficient.

Test [1] deals with T2, nuclear eIF4E-cyclin D1 mRNA association (Homo sapiens, UniProt P06730).
T2 construct: endogenous in cells; host or cells: HEK293T cells, nuclear lysate
The test is described as follows: eIF4E immunoprecipitation from nuclear lysates with cap analogue competition, RT-PCR. The format is biochemical. Particulars: 50 uM analogue.

Test [2] deals with cap-binding complex (CBC) (Homo sapiens, UniProt P52298). Particulars: cited from earlier work.
In a further test the test system is cap-driven translation. Particulars: cited from earlier work.
Another test deals with 4E-SE mRNA export. Nature of the test: export of LacZ-4E-SE mRNA (c/n ratio, real time PCR) in eIF4E overexpressing U2OS cells. Format: cell-based, human. Particulars: for export of 4E-SE containing / cyclin D1 mRNA under inhibition of RNA or protein synthesis: actinomycin D 10 μg/ml, cycloheximide 100 μg/ml, 1 hour. As for the experimental part: eIF4E and PML stably transfected NIH3T3 and U937 cells were as described (Topisirovic et al., 2002; Topisirovic et al., 2003a). U937 cells were used to analyze endogenous Pim1, which is not expressed in NIH3T3 cells. LacZ/LacZ-4E-SE with or without 2Flag-eIF4E as well as TetON LacZ system were stably transfected in U2OS cells. For NXF1 depletion, U2OS cells were transfected with Lipofectamine 2000 and 10 nM siRNA duplex HSC.RNAI.N006362.1.3 (IDT) according to the manufacturer's instruction. Cells were analyzed 72 h after transfection. Actinomycin D, cycloheximide and leptomycin B were all cell culture grade (Sigma).
Immunopurification was as previously published (Culjkovic et al., 2005). Real Time PCR analyses were performed using Sybr Green PCR Master mix (ABI) in Mx3000P™ thermal cycler (Stratagene), and data analyzed with MxPro software (Stratagene). All conditions were described previously (Culjkovic et al., 2005). All calculations were done using the relative standard curve method described in Applied Biosystems User Bulletin #2.
Fractionation and RNA isolation were as described (Lai and Borden, 2000; Topisirovic et al., 2002). Probes for U6 and tRNAlys for Northern blot analysis were previously described (Topisirovic et al., 2002).

Another test addresses T3, eIF4E:m7G binding (G4E) (UniProt P06654+P63073).
T3 construct: made in house; host or cells: E. coli BL21 (DE-3); construct a gift of Gerhard Wagner
The test is described as follows: m7G-Sepharose affinity chromatography competition. More on the design: species or system mouse. As for the experimental part: FIG. 9. […] Washed beads (three times with 75 bed volumes) were incubated with 50 uM of compounds as indicated for 30 min at room temperature. Beads were washed (three times with 75 bed volumes) to remove dissociated eIF4E, and eIF4E remaining bound to beads was resolved using SDS-PAGE, and visualized using Western blotting and chemiluminescence. […] Washed beads (five times with 50 bed volumes of LCB buffer) were incubated with 5 bed volumes of 50 uM of compounds as indicated for 20 min at 4° C. Then 20 uL of the supernatant containing dissociated eIF4E was transferred to a new tube, cleared of trace beads containing bound eIF4E, and resolved using SDS-PAGE, and visualized using Western blotting and chemiluminescence.
m^7G-Sepharose beads (Amersham Pharmacia, 20-μl slurry) were bound with 1.5 ml of 2 μM G4E, purified as described above, in 0.3 M NaCl/0.1 M sodium phosphate (pH 7.5)/10 μM protease-free BSA (USB)/0.1% Nonidet P-40 (Buffer B) for 30 min at room temperature. […] Upon washing released G4E three times with Buffer B, G4E remaining bound to m^7G-Sepharose was boiled in Laemmli buffer (10% glycerol/2% SDS/100 mM DTT/80 mM Tris.HCl/0.06% bromophenol blue, pH 6.8), subjected to SDS/PAGE, and visualized by using Western blotting, as described below.

A further test has as its target HCV polymerase (Hepatitis C virus genotype 1a, UniProt P27958). Conditions: read-out: dissociation constant for HCV polymerase; cited from earlier work.
In the next test the target is eIF4E (Homo sapiens, UniProt P06730). Conditions: cited from earlier work.
Chain of eIF4E (P06730 whole entry, species assumed): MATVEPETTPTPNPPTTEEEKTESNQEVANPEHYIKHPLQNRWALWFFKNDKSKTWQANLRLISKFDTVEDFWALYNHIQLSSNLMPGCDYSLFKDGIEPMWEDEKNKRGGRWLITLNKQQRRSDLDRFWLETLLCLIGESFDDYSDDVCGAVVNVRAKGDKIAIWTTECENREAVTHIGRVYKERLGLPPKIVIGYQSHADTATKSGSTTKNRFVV

T1 sequence (P63073 whole entry): as the sequence (P06730 whole entry, species assumed) above, with P12T, T16P, T17A, E174D counted along it
T3 sequence (P06654+P63073 fused): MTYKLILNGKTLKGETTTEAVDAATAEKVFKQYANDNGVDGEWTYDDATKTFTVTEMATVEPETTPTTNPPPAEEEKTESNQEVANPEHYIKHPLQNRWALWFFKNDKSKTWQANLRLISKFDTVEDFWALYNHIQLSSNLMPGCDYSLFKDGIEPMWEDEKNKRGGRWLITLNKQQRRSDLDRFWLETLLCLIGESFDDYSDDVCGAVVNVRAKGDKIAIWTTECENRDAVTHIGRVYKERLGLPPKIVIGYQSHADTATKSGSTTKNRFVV
T2 sequence (P06730 2-217 limits assumed): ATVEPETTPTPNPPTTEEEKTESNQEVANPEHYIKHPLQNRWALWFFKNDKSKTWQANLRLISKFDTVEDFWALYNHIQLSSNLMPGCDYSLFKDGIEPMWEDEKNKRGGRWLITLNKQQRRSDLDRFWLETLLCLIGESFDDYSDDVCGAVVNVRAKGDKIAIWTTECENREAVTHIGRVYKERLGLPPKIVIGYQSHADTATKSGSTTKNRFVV
Chain of cap-binding complex (CBC) (P52298 whole entry): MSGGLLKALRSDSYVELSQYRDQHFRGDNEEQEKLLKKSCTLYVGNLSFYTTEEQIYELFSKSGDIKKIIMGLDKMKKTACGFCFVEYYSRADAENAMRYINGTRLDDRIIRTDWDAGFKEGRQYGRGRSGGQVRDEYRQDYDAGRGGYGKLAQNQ
Chain of cap-binding complex (CBC) (Q09161 whole entry partner): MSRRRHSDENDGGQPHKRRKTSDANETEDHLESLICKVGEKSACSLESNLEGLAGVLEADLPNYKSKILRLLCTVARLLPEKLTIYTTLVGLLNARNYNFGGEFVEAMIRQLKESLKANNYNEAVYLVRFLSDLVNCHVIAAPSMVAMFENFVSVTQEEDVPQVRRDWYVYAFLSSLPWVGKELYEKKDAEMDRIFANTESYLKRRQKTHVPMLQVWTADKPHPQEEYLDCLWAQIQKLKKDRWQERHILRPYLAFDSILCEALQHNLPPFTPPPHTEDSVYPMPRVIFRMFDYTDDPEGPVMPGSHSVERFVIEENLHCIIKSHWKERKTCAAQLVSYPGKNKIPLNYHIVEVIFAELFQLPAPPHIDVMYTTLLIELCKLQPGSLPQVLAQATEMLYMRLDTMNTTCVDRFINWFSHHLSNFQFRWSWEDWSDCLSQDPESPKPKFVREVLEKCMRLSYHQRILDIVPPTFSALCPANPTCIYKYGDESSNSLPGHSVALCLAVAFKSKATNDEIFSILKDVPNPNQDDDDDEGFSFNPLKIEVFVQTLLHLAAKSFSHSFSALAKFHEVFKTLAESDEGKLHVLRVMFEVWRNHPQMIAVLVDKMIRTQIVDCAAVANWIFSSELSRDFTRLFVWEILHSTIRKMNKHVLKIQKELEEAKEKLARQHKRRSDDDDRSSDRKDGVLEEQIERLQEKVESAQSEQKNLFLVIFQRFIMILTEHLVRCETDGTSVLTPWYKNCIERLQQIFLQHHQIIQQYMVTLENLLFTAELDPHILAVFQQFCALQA
Chain of HCV polymerase (P27958 2421-3011): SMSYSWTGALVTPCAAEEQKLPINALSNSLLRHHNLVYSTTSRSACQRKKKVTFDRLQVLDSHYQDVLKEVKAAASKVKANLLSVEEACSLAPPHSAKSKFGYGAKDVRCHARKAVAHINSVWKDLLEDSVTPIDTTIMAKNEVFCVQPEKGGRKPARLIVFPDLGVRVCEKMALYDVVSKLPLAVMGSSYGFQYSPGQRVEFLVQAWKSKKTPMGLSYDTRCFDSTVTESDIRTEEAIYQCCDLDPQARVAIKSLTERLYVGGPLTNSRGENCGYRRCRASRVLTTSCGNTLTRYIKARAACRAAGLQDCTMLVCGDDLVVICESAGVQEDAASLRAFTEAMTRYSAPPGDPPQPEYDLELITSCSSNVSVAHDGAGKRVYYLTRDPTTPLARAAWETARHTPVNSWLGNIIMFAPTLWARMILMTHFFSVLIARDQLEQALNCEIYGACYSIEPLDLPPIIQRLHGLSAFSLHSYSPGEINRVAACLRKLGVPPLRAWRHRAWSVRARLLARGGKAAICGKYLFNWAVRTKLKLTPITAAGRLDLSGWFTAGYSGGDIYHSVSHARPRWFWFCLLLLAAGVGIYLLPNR

Take `NC(=O)c1cn([C@@H]2O[C@H](CO)[C@@H](O)[C@H]2O)nn1` [Rib4C, 1-β-D-ribofuranosyl-1,2,3-triazole-4-carboxamide]: the “binding to eIF4E” value at eIF4E wild-type (in vitro) was “failed to bind eIF4E”.
In the case of `Cn1c[n+]([C@@H]2O[C@H](COP(=O)(O)OP(=O)([O-])OP(=O)(O)OC[C@H]3O[C@@H](n4cnc5c(=O)[nH]c(N)nc54)[C@H](O)[C@@H]3O)[C@@H](O)[C@H]2O)c2nc(N)[nH]c(=O)c21` [m7GpppG], the “association of cyclin D1 mRNA with nuclear eIF4E” value in test [1] was “successfully disrupts”. In addition, in test [2], the Kd was around 10 nM. For the same molecule, the “analog concentration inhibiting cap-driven translation” value in the test with cap-driven translation (Westman et al. 2005) is recorded as “ca. 0.1 mM”.
As to `CCC(=C/[C@H](C)C/C=C/C(C)=C/[C@@H](C)C(=O)[C@@H](C)[C@H](O)[C@@H](C)C/C(C)=C/C(=O)O)/C=C/[C@@H]1OC(=O)C=C[C@@H]1C` [LMB], the “export of LacZ-4E-SE mRNA” value with 4E-SE mRNA export (10 ng/ml for 4 h) was “sensitive to LMB; also recorded: suppressed export”.
As to `NC(=O)c1ncn([C@@H]2O[C@H](CO[P@@](=O)(O)O[P@](=O)(O)OP(=O)(O)O)[C@@H](O)[C@H]2O)n1` [RTP, Ribavirin-5′ triphosphate], the Kd at eIF4E wild-type (fluorescence spectroscopy, wild-type eIF4E, read-out: apparent dissociation constant (Kd) for eIF4E) was 130 nM and ~100 nM; on HCV polymerase it was 580000 nM. The “competition with m7G binding, protocol of Yan et al.” value at eIF4E:m7G binding (G4E) (0.1 M KCl, 10 mM HEPES-KOH pH 8.0, presumed 4 C) is recorded as “apparent failure of RTP to compete”. Further, the “competition with eIF4E:m7G binding” value on eIF4E:m7G binding (G4E) (0.3 M NaCl, 0.1 M sodium phosphate pH 7.5, room temperature, micromolar concentrations) is “compete with the binding of eIF4E:m7G”. Further, the IC50 on eIF4E:m7G binding (G4E) (Western blot of eIF4E remaining bound, read-out: concentration giving 50% reduction of eIF4E binding to m7G-Sepharose) is around 1000 nM. At eIF4E:m7G binding (G4E) (read-out: apparent inhibition constant (Ki) of eIF4E:m7G binding), the Ki is around 300 nM.
In the case of `Nc1nc2c(ncn2[C@@H]2O[C@H](CO)[C@@H](O)[C@H]2O)c(=O)[nH]1` [guanosine], the “binding to eIF4E relative to m7G cap, fold weaker” value at eIF4E is recorded as above 5000 fold.
With `Nc1nc2c(ncn2[C@@H]2O[C@H](COP(=O)(O)OP(=O)(O)OP(=O)(O)OC[C@H]3O[C@@H](n4cnc5c(=O)[nH]c(N)nc54)[C@H](O)[C@@H]3O)[C@@H](O)[C@H]2O)c(=O)[nH]1` [GpppG], in test [1], the “association of cyclin D1 mRNA with nuclear eIF4E” value was “does not disrupt”.
As for `NC(=O)c1ncn(C2OC(COP(=O)(O)OP(=O)(O)OP(=O)(O)OCC3OC(n4cnc5c(=O)[nH]c(N)nc54)C(O)C3O)C(O)C2O)n1` (centres unmarked) [RpppG], the “inhibition of cap-driven translation” value in the test on cap-driven translation (Westman et al. 2005) is given as “does not”.
Turning to `C[C@@H]1C[C@@H]([C@H](O)CC2CC(=O)NC(=O)C2)C(=O)[C@@H](C)C1` [cycloheximide], the “export of 4E-SE containing / cyclin D1 mRNA under inhibition of RNA or protein synthesis” value in the test with 4E-SE mRNA export is given as “not modulated”.
Regarding `Cc1c2oc3c(C)ccc(C(=O)N[C@@H]4C(=O)N[C@H](C(C)C)C(=O)N5CCC[C@H]5C(=O)N(C)CC(=O)N(C)[C@@H](C(C)C)C(=O)O[C@@H]4C)c3nc-2c(C(=O)N[C@@H]2C(=O)N[C@H](C(C)C)C(=O)N3CCC[C@H]3C(=O)N(C)CC(=O)N(C)[C@@H](C(C)C)C(=O)O[C@@H]2C)c(N)c1=O` [actinomycin D] (I: T[dV]P[Sar][NMeV] / II: T[dV]P[Sar][NMeV]; ester I:1-I:C, II:1-II:C; linker I:N-II:N via Actinocin(9to1)), in the test on 4E-SE mRNA export, the “export of 4E-SE containing / cyclin D1 mRNA under inhibition of RNA or protein synthesis” value is listed as “did not affect export”.
For the molecule `Cn1c[n+]([C@@H]2O[C@H](COP(=O)(O)OP(=O)([O-])O)[C@@H](O)[C@H]2O)c2nc(N)[nH]c(=O)c21` [m7GDP], the “reduction of cap-driven firefly luciferase activity” value in the test on cap-driven translation (1 mM, Yan et al. 2005) is given as “fourfold”.
